In US7671181B2, “Polynucleotides encoding coccidian parasite casein kinase I, a chemotherapeutic target for antiprotozoal agents” (Merck Sharp & Dohme Corp., priority 2004, dated 2010):

Columns and labels:
TgCKIβ = TgCKIβ (Toxoplasma gondii, UniProt Q6QNM0); test: Casein kinase assay, recombinant FLAGTgCKIβ; assay type: biochemical; settings: recombinant enzyme; read-out: IC50 against TgCKIβ
Method: (§1) Protein kinase assays—Casein kinase activity was assayed essentially as described (Donald, R. G. K. et al., 2002, supra) using 96-well phosphocellulose plates (MAPH-NOB, Millipore; Billerica, Mass.) to capture ^33P-phosphorylated peptide or casein substrates. Kinase reactions were carried out in 40 μl volumes containing 25 mM Hepes, pH 7.4, 10 mM MgCl2, 20 mM β-glycerophosphate, 1 mM DTT, 250 μM substrate, 1 mg/mL BSA, 2 μM ATP, and 0.01 μM [γ-^33P]ATP (Perkin-Elmer, 3000 Ci/mmol). […] Casein (5% solution), partially dephosphorylated α-casein and β-casein were obtained from Sigma.
(§2) A variety of commercially available peptide substrates were evaluated. From Calbiochem (San Diego, Calif.): CKI substrate (RRKDLHDDEEDEAMSITA; SEQ ID NO:13); CKII substrate (RRADDSDDDDD; SEQ ID NO:14); Syntide-2 substrate (PLARTLSVAGLPGKK; SEQ ID NO:15); CaM kinase II substrate (281-291) (MHKNETVECLK; SEQ ID NO:16). From Promega: CKI substrate (DDDEESITRR; SEQ ID NO:17) and kemptide (LRRASLG; SEQ ID NO:18). From New England Biolabs (Beverly, Mass.): CKI phosphopeptide substrate (KRRRALS(p)VASLPGL; SEQ ID NO:19), and CKII substrate (RRREEETEEE; SEQ ID NO:20). PKG assays were performed with kemptide as substrate and 10 μM cGMP. CDPK was assayed with Syntide-2 substrate and in the presence of 100 μM CaCl2.
Purification of recombinant CKI enzymes—E. coli strain BL21 Origami™ (Novagen) was transformed with FLAGTgCKIα and FLAGTgCKIβ expression vectors, and colonies were expanded into 250 mL LB cultures grown at 37° C. Expression was induced with 1 mM IPTG once cultures had reached an OD600nm of 0.3-0.5, and the transformed bacteria were harvested 4-6 hours later. Cell pellets were resuspended in 15 mL of lysis buffer containing protease inhibitors and lysates prepared as described by the supplier (Bugbuster™ reagents, Novagen). The concentration of NaCl in the lysate was adjusted to 0.5 M, and 0.5 mL of FLAG-agarose beads were added (Sigma). The mixture was allowed to rock in a Nutator mixer (Becton-Dickinson; San Jose, Calif.) for 2 hours at 4° C. The slurry was then poured into an empty column and the matrix washed with 50 mL of wash buffer (50 mM Tris-HCl, pH 7.4, 0.5M NaCl, 10% glycerol, 1 mM DTT, 1 mM EDTA). Enzyme was eluted with 5 mL of 0.4 mg/mL FLAG peptide (Sigma) in NaCl-free wash buffer and concentrated with a centrifuge filtration unit (Amicon Ultra®, 10 kDa cut-off, Millipore). Protein was measured with a micro-BCA reagent (Pierce) following a TCA-sodium deoxycholate step to remove residual FLAG peptide (Brown et al., 1989, Anal. Biochem. 180:136-139). Using this procedure, and SDS-PAGE analysis, the yield of FLAGTgCKIβ was estimated as ˜200 μg of enzyme with >90% purity. Purification of FLAGTgCKIα was much less efficient with only about 1 μg of ˜10% pure enzyme obtained per 250 mL bacterial culture.
(§3) Preparations of FLAGTgCKIα and FLAGTgCKIβ were purified further on a SMART system FPLC 0.1 mL MonoQ anion exchange column (Pharmacia; New York, N.Y.) equilibrated in buffer A (50 mM Hepes, pH 7.4, 10% glycerol, 1 mM DTT) at room temperature. Samples of FLAG-affinity purified enzyme (10-100 μg) were syringe-passed through a 0.22 μm (pore-size) filter before loading on the column. A linear salt gradient was applied (0-500 mM in 3 mL at 100 μl/min) and 100 μl fractions were collected and analyzed by SDS-PAGE and for CKI activity. Fractions with peak activity were retained for further analysis. The degree of purity of the partially purified FLAGTgCKIα was estimated by densitometry of silver stained SDS-PAGE gels. A recombinant rat CKIδ enzyme used for control purposes was obtained from New England Biolabs.

rat CKIδ = target: T1, rat CKIδ (Rattus norvegicus, UniProt Q06486); test: Casein kinase assay, recombinant rat CKIδ control enzyme; assay type: biochemical; settings: read-out: IC50 against rodent CKIδ
T1 construct: purchased New England Biolabs
T1 sequence (Q06486 1-317 limits assumed): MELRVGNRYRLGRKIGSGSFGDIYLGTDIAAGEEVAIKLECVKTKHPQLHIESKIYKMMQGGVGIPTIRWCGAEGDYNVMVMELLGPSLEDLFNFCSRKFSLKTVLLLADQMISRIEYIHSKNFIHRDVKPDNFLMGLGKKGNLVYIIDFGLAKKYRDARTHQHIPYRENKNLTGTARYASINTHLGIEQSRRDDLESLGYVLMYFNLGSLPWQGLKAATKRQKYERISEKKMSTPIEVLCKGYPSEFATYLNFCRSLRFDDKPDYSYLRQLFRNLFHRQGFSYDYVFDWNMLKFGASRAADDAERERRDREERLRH
Method: (§4) Protein kinase assays—Casein kinase activity was assayed essentially as described (Donald, R. G. K. et al., 2002, supra) using 96-well phosphocellulose plates (MAPH-NOB, Millipore; Billerica, Mass.) to capture ^33P-phosphorylated peptide or casein substrates. Kinase reactions were carried out in 40 μl volumes containing 25 mM Hepes, pH 7.4, 10 mM MgCl2, 20 mM β-glycerophosphate, 1 mM DTT, 250 μM substrate, 1 mg/mL BSA, 2 μM ATP, and 0.01 μM [γ-^33P]ATP (Perkin-Elmer, 3000 Ci/mmol). The reactions were initiated by the addition of enzyme and incubated at room temperature for 60 min. Casein (5% solution), partially dephosphorylated α-casein and β-casein were obtained from Sigma.
as §3, with “A recombinant rat CKIδ enzyme used for control purposes was obtained from New England Biolabs.” left out

TgCKIα = TgCKIα (Toxoplasma gondii, UniProt Q6QNM1); test: Casein kinase assay, TgCKIα (recombinant FLAGTgCKIα or partially purified native); assay type: biochemical; set-up: other: recombinant or native forms of TgCKIα
Method: as §1, §2
(§5) Purification of recombinant CKI enzymes—E. coli strain BL21 Origami™ (Novagen) was transformed with FLAGTgCKIα and FLAGTgCKIβ expression vectors, and colonies were expanded into 250 mL LB cultures grown at 37° C. […] Protein was measured with a micro-BCA reagent (Pierce) following a TCA-sodium deoxycholate step to remove residual FLAG peptide (Brown et al., 1989, Anal. Biochem. 180:136-139). […]
Preparations of FLAGTgCKIα and FLAGTgCKIβ were purified further on a SMART system FPLC 0.1 mL MonoQ anion exchange column (Pharmacia; New York, N.Y.) equilibrated in buffer A (50 mM Hepes, pH 7.4, 10% glycerol, 1 mM DTT) at room temperature. […] A linear salt gradient was applied (0-500 mM in 3 mL at 100 μl/min) and 100 μl fractions were collected and analyzed by SDS-PAGE and for CKI activity. […]

[1] = test system: CC(C)C[C@H](NC(=O)CNC(=O)[C@@H]1CCCN1C(=O)[C@H](CC(C)C)NC(=O)[C@H](CO)NC(=O)[C@H](C)NC(=O)[C@@H](NC(=O)[C@H](COP(=O)(O)O)NC(=O)[C@H](CC(C)C)NC(=O)[C@H](C)NC(=O)[C@H](CCCNC(=N)N)NC(=O)[C@H](CCCNC(=N)N)NC(=O)[C@H](CCCNC(=N)N)NC(=O)[C@@H](N)CCCCN)C(C)C)C(=O)O; test: as above; assay type: biochemical; settings: other: substrate titration, 2 μM ATP; pH 7.4; 37.0 °C
Method: as §1
(§6) A variety of commercially available peptide substrates were evaluated. From Calbiochem (San Diego, Calif.): CKI substrate (RRKDLHDDEEDEAMSITA; SEQ ID NO:13); CKII substrate (RRADDSDDDDD; SEQ ID NO:14); Syntide-2 substrate (PLARTLSVAGLPGKK; SEQ ID NO:15); CaM kinase II substrate (281-291) (MHKNETVECLK; SEQ ID NO:16). From Promega: CKI substrate (DDDEESITRR; SEQ ID NO:17) and kemptide (LRRASLG; SEQ ID NO:18). […]
as §5

T. gondii tachyzoites = test: [3H]-uracil uptake assay of parasite growth inhibition in infected HFF cell monolayers; assay type: cell-based, Toxoplasma gondii
From the text: Host cells and parasite cultures—RH strain or RH ΔHXGPRT strain tachyzoites of T. gondii were maintained by serial passage in confluent monolayers of human foreskin fibroblasts (“HFF”) as described (Roos, D. S. et al., 1994, Methods Cell Biol. 45:27-63). A modified [^3H]-uracil uptake assay (Pfefferkorn, E. R. and Pfefferkorn, L. C., 1977, J. Protozool. 24:449-453) adapted for use in 96-well scintillation plates (Cytostar-T, Amersham; Piscataway, N.J.) was used to measure parasite growth inhibition. Each well, previously seeded with HFF cells, was inoculated with T. gondii tachyzoites (2×10^4) in 200 μl of growth media containing 2 μCi [5,6]-^3H-uracil (Perkin-Elmer NEN; Boston, Mass.) and serially diluted compound. Following incubation at 37° C. for 36-48 hours, tritium-incorporation into host cell monolayers was directly counted in a microplate scintillation counter (MicroBeta, PerkinElmer-Wallac).

[2] = test system: T. gondii PKG, CKIα and -β, and CDPK1; native E. tenella CKIα; test: Protein kinase assays, the parasite kinases tested (Table 2 panel); assay type: biochemical
Method: as §4, §2

mammalian CDK1 = mammalian CDK1 (Homo sapiens, UniProt P06493); settings: Knockaert et al., 2002; cited from earlier work
mammalian CDK5 = mammalian CDK5 (Homo sapiens, UniProt Q00535); settings: Knockaert et al., 2002; cited from earlier work
[3] = substrate: CC(C)C[C@H](NC(=O)CNC(=O)[C@@H]1CCCN1C(=O)[C@H](CC(C)C)NC(=O)[C@H](CO)NC(=O)[C@H](C)NC(=O)[C@@H](NC(=O)[C@H](COP(=O)(O)O)NC(=O)[C@H](CC(C)C)NC(=O)[C@H](C)NC(=O)[C@H](CCCNC(=N)N)NC(=O)[C@H](CCCNC(=N)N)NC(=O)[C@H](CCCNC(=N)N)NC(=O)[C@@H](N)CCCCN)C(C)C)C(=O)O; test: Casein kinase assay, recombinant FLAGTgCKIβ; assay type: biochemical; settings: other: substrate titration, 2 μM ATP; pH 7.4; 37.0 °C
Method: as §1, §6, §5

mammalian CDK5, sequence (Q00535 whole entry): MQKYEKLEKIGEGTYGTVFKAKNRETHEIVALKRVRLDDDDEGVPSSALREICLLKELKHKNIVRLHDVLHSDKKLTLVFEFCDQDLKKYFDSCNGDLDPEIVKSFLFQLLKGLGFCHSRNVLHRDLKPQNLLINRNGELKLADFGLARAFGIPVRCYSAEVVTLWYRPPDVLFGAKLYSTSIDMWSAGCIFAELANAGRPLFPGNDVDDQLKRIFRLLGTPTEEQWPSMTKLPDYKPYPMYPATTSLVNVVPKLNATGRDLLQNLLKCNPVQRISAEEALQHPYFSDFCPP
mammalian CDK5, sequence (Q15078 99-307 partner limits assumed): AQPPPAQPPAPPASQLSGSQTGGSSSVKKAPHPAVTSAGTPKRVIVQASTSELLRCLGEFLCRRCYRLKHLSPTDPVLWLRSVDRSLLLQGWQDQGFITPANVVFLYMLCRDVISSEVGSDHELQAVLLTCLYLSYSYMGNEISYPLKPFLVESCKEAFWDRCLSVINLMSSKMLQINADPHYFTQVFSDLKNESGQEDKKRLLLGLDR
mammalian CDK1, sequence (P06493 whole entry): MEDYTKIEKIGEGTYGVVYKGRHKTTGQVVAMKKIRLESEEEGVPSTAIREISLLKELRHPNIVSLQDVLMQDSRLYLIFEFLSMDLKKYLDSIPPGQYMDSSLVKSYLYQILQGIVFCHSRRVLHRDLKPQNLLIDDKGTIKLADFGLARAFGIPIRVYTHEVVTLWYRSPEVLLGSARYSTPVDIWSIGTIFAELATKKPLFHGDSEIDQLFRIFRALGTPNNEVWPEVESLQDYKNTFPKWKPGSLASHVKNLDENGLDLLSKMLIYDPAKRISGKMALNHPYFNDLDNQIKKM
mammalian CDK1, sequence (P14635 whole entry partner): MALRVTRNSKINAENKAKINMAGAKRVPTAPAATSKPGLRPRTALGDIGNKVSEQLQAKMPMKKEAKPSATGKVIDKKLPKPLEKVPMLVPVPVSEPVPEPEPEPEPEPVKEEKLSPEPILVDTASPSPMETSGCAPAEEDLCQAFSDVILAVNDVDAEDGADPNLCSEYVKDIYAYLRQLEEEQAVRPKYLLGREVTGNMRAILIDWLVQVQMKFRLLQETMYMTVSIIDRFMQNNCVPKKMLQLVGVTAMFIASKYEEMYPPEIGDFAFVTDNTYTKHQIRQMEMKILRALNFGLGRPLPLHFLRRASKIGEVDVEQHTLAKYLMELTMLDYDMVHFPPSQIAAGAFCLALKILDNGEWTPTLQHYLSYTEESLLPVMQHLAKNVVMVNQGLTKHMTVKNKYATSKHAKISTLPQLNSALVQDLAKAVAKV
TgCKIα, sequence (Q6QNM1 whole entry, looked up): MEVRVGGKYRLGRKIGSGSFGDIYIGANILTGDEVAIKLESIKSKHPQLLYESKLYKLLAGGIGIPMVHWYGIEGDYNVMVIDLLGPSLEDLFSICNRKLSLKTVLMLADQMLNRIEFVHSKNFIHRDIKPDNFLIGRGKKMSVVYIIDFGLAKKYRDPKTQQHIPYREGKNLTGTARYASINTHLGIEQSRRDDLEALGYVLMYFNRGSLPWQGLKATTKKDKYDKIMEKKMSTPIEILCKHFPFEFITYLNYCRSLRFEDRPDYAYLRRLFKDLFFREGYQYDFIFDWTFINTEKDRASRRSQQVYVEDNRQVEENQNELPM

## NC1=NC(=O)/C(=C2\CCNC(=O)c3[nH]c(Br)cc32)N1 [Hymenialdisine]
TgCKIβ
  IC50: 7 to 10 nM
Rat CKIδ
  IC50: 60 nM
TgCKIα
  IC50: 7 to 10 nM

## TgCKIα (Toxoplasma gondii)
[1]
  Vmax: 26 nmol/min/mg

## O=C1Cc2c([nH]c3ccc([N+](=O)[O-])cc23)-c2ccccc2N1 [alsterpaullone]
T. gondii tachyzoites; Toxoplasma gondii, infected HFF cell monolayers, read-out: IC50, antiparasitic activity in the whole cell assay
  IC50: 1200 nM
[2]
  activity against the parasite kinases tested: Neither kenpaullone nor alsterpaullone showed any activity
Mammalian CDK1
  potency against mammalian CDK1 relative to kenpaullone: at least 10 fold
Mammalian CDK5
  potency against mammalian CDK5 relative to kenpaullone: at least 10 fold

## O=C1Cc2c([nH]c3ccc(Br)cc23)-c2ccccc2N1 [kenpaullone]
T. gondii tachyzoites; uracil uptake / whole cell assay
  activity against cultured T. gondii parasites: inactive
[2]
  activity against the parasite kinases tested: Neither kenpaullone nor alsterpaullone showed any activity

B1: TgCKIβ (Toxoplasma gondii) (protein)
chain: MAHHQDTRNHTGVGPSSSIPLKDLKIAGVWKIGRKIGSGSFGDIYKGLNSQTGQEVALKVESTKAKHPQLLYEYKLLKHLQGGTGIAQVFCCETAGDHNIMAMELLGPSLEDVFNLCNRTFSLKTILLLADQFLQRVEYIHSKNFIHRDIKPDNFLLGGAGNQNTIYVIDFGLAKKFRDPKTHQHIPYRENKNLTGTARYASISAHLGSEQSRRDDLEAVGYVLMYFCRGGTLPWQGIKANTKQEKYHKIMEKKMSTPVEVLCKGYPSEFATYLHYCRSLRFEDRPDYAYLKRLFRDLYIKEGYDDSDREFDWTVKLSSRSLGPPSSRAQHVLLSQDTRTRGKRETDRPVAARSGDRERGIHFSNGNVGNPSMATNPGGLSVMVHERTSLVDQGDRGSRETSTRKEDAKDGRWPGGRFSCLPLLCRRSPTKA
[3]
  Km: 79 µM
  Vmax: 37 nmol/min/mg
